Measured values published in US20180273531A1, “PYRIMIDINE COMPOUND AND MEDICAL USE THEREOF” (Japan Tobacco Inc., priority 2004, published 2018).

Assays:
Type in all cases: cell-based
[1] = system: p27 protein; experiment: p27 protein induction test (Western blotting); conditions: test substance (0.1 1M), 24 hrs, ACHN cells or HT-29 cells, compared to DMSO, n=2
Method: ACHN cells or HT-29 cells were cultured in a 6 well plate at 2.5×10^5 cells/1.8 mL/well for 24 hrs, a test substance ([…]) dissolved in DMSO was added. After 24 hrs, cells were detached using trypsin-EDTA (ethylene diamine tetraacetic acid) and solubilized with NuPAGE LDS sample buffer (Invitrogen). Using an RC DC protein assay kit (BIO-RAD), the protein concentration of the sample was quantitated, and a sample in an amount corresponding to 10 μg of BSA (bovine serum albumin) was analyzed by Western blotting using an anti-p27 antibody. The density of the band stained with the anti-p27 antibody was measured by a densitometer to quantify the amount of p27 protein. As a control, DMSO was used and the test was performed with n=2 and the average protein amount was determined.

[2] = system: p15 protein; experiment: Evaluation of p15 induction activity (Western blotting); conditions: test substance 0.1 μM, 24 hrs, ACHN cells or HT-29 cells, compared to DMSO, n=2
Summary of the method: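 p15 protein quantified by densitometry of anti-p15 Western blots (10 μg protein per lane, mean of n=2). Samples came from HT-29 or ACHN cells given 0.1 μM compound for 24 h after 24 h plating, with DMSO as control.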

[3] = system: colorectal cancer cell line HT-29 cells; experiment: Growth inhibitory effect against cancer cell lines (3H-thymidine uptake), HT-29; conditions: Homo sapiens, HT-29, inhibition of 3H-thymidine uptake; test substance 18 hrs, then 3H-thymidine 6 hrs; triplicate
Summary of the method: (§1)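 Cells seeded at 1.0×10^4/well, grown 24 hrs, then exposed to compound in DMSO for 18 hrs before 6 hrs pulse with ^3H-thymidine (0.25 μCi/well). Harvested cell-incorporated radioactivity counted; IC50 is the concentration halving uptake versus DMSO control, triplicate.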

[4] = system: Renal cancer cell line ACHN cell; experiment: Growth inhibitory effect against cancer cell lines (3H-thymidine uptake), ACHN; conditions: Homo sapiens, ACHN
Summary of the method: as §1

## C#Cc1ccc(Nc2cc(=O)n(C)c3c2c(=O)n(C2CC2)c(=O)n3-c2cccc(NS(=O)(=O)CC)c2)cc1 [Example 1-298]
[1]
  fold induction at 0.1 µM: ≥ 1.5
[2]
  fold induction at 0.1 µM: ≥ 1.5
[3]
  IC50: < 10 nM
[4]
  IC50: 10 to 100 nM

## Cn1c(=O)cc(Nc2ccc(C(F)(F)F)cc2F)c2c(=O)n(C3CC3)c(=O)n(-c3cccc(NS(C)(=O)=O)c3)c21 [Example 1-301]
[1]
  fold induction at 0.1 µM: ≥ 1.5
[2]
  fold induction at 0.1 µM: ≥ 1.5
[3]
  IC50: 10 to 100 nM
[4]
  IC50: 100 to 1000 nM

## Cn1c(=O)cc(Nc2ccc(Br)cc2F)c2c(=O)n(C3CC3)c(=O)n(-c3cccc(S(=O)(=O)N4CCCCC4)c3)c21 [Example 1-317]
[1]
  fold induction at 0.1 µM: ≥ 1.5
[2]
  fold induction at 0.1 µM: ≥ 1.5
[3]
  IC50: 10 to 100 nM
[4]
  IC50: 100 to 1000 nM

## Cn1c(=O)cc(Nc2ccc(Br)cc2F)c2c(=O)n(C3CC3)c(=O)n(-c3cccc(S(=O)(=O)N4CCCC4)c3)c21 [Example 1-318]
[1]
  fold induction at 0.1 µM: ≥ 1.5
[2]
  fold induction at 0.1 µM: ≥ 1.5
[3]
  IC50: < 10 nM
[4]
  IC50: 100 to 1000 nM

## CC(C)S(=O)(=O)Nc1cccc(-n2c(=O)n(C3CC3)c(=O)c3c(Nc4ccc(I)cc4F)cc(=O)n(C)c32)c1 [Example 1-319]
[1]
  fold induction at 0.1 µM: ≥ 1.5
[2]
  fold induction at 0.1 µM: ≥ 1.5
[3]
  IC50: < 10 nM
[4]
  IC50: < 10 nM

## C#Cc1ccc(Nc2cc(=O)n(C)c3c2c(=O)n(C2CC2)c(=O)n3-c2cccc(NS(=O)(=O)CCC)c2)c(F)c1 [Example 1-320]
[1]
  fold induction at 0.1 µM: ≥ 1.5
[2]
  fold induction at 0.1 µM: ≥ 1.5
[3]
  IC50: < 10 nM
[4]
  IC50: 10 to 100 nM

## Cn1c(=O)cc(Nc2ccc(I)cc2Cl)c2c(=O)n(C3CC3)c(=O)n(-c3cccc(NS(C)(=O)=O)c3)c21 [Example 1-322]
[1]
  fold induction at 0.1 µM: ≥ 1.5
[2]
  fold induction at 0.1 µM: ≥ 1.5
[3]
  IC50: < 10 nM
[4]
  IC50: 10 to 100 nM

## CNC(=O)Nc1cccc(-n2c(=O)n(C3CC3)c(=O)c3c(Nc4ccc(Br)cc4F)cc(=O)n(C)c32)c1 [Example 1-325]
[1]
  fold induction at 0.1 µM: ≥ 1.5
[2]
  fold induction at 0.1 µM: ≥ 1.5
[3]
  IC50: 10 to 100 nM
[4]
  IC50: 100 to 1000 nM

## CONC(=O)Nc1cccc(-n2c(=O)n(C3CC3)c(=O)c3c(Nc4ccc(Br)cc4F)cc(=O)n(C)c32)c1 [Example 1-327]
[1]
  fold induction at 0.1 µM: ≥ 1.5
[2]
  fold induction at 0.1 µM: ≥ 1.5
[3]
  IC50: 10 to 100 nM
[4]
  IC50: 100 to 1000 nM

## Cn1c(=O)cc(Nc2ccc3sccc3c2)c2c(=O)n(C3CC3)c(=O)n(-c3ccccc3)c21 [Example 1-328]
[1]
  fold induction at 0.1 µM: ≥ 1.5
[2]
  fold induction at 0.1 µM: ≥ 1.5
[3]
  IC50: 10 to 100 nM
[4]
  IC50: 100 to 1000 nM

## C#Cc1ccc(Nc2cc(=O)n(C)c3c2c(=O)n(C2CC2)c(=O)n3-c2cccc(NS(C)(=O)=O)c2)c(C)c1 [Example 1-336]
[1]
  fold induction at 0.1 µM: ≥ 1.5
[2]
  fold induction at 0.1 µM: ≥ 1.5
[3]
  IC50: < 10 nM
[4]
  IC50: 10 to 100 nM

## C#Cc1ccc(Nc2cc(=O)n(C)c3c2c(=O)n(C2CC2)c(=O)n3-c2cccc(NS(C)(=O)=O)c2)c(Cl)c1 [Example 1-337]
[1]
  fold induction at 0.1 µM: ≥ 1.5
[2]
  fold induction at 0.1 µM: ≥ 1.5
[3]
  IC50: < 10 nM
[4]
  IC50: 10 to 100 nM

## Cn1c(=O)cc(Nc2ccc(CCF)cc2F)c2c(=O)n(C3CC3)c(=O)n(-c3cccc(NS(C)(=O)=O)c3)c21 [Example 1-338]
[1]
  fold induction at 0.1 µM: ≥ 1.5
[2]
  fold induction at 0.1 µM: ≥ 1.5
[3]
  IC50: < 10 nM
[4]
  IC50: 10 to 100 nM

## Cc1cc(I)ccc1Nc1cc(=O)n(C)c2c1c(=O)n(C1CC1)c(=O)n2-c1cccc(NS(C)(=O)=O)c1 [Example 1-340]
[1]
  fold induction at 0.1 µM: ≥ 1.5
[2]
  fold induction at 0.1 µM: ≥ 1.5
[3]
  IC50: < 10 nM
[4]
  IC50: 10 to 100 nM

## CSc1ccc(Nc2cc(=O)n(C)c3c2c(=O)n(C2CC2)c(=O)n3-c2cccc(NC(C)=O)c2)c(F)c1 [Example 1-341]
[1]
  fold induction at 0.1 µM: ≥ 1.5
[2]
  fold induction at 0.1 µM: ≥ 1.5
[3]
  IC50: < 10 nM
[4]
  IC50: 10 to 100 nM

## CC(=O)Nc1cccc(-n2c(=O)n(C3CC3)c(=O)c3c(Nc4ccc(CCF)cc4F)cc(=O)n(C)c32)c1 [Example 1-342]
[1]
  fold induction at 0.1 µM: ≥ 1.5
[2]
  fold induction at 0.1 µM: ≥ 1.5
[3]
  IC50: < 10 nM
[4]
  IC50: 100 to 1000 nM

## Cc1c(=O)n(C)c(Nc2ccc(Br)cc2F)c2c(=O)n(C3CC3)c(=O)n(-c3cccc(NS(C)(=O)=O)c3)c12 [Example 3-4]
[1]
  fold induction at 0.1 µM: ≥ 1.5
[2]
  fold induction at 0.1 µM: ≥ 1.5
[3]
  IC50: < 10 nM
[4]
  IC50: 10 to 100 nM

## Cc1c(=O)n(C)c(Nc2ccc(I)cc2F)c2c(=O)n(C3CC3)c(=O)n(-c3cccc(NS(C)(=O)=O)c3)c12 [Example 3-7, N-{3-[3-cyclopropyl-5-(2-fluoro-4-iodophenylamino)-6,8-dimethyl-2,4,7-trioxo-3,4,6,7-tetrahydro-2H-pyrido[4,3-d]pyrimidin-1-yl]phenyl}methanesulfonamide]
[1]
  fold induction at 0.1 µM: ≥ 1.5
[2]
  fold induction at 0.1 µM: ≥ 1.5
[3]
  IC50: < 10 nM
[4]
  IC50: < 10 nM

## CCS(=O)(=O)Nc1cccc(-n2c(=O)n(C3CC3)c(=O)c3c(Nc4ccc(I)cc4F)n(C)c(=O)c(C)c32)c1 [Example 4-2]
[1]
  fold induction at 0.1 µM: ≥ 1.5
[2]
  fold induction at 0.1 µM: ≥ 1.5
[3]
  IC50: < 10 nM
[4]
  IC50: < 10 nM

## C#Cc1ccc(Nc2c3c(=O)n(C4CC4)c(=O)n(-c4cccc(NS(=O)(=O)CC)c4)c3c(C)c(=O)n2C)c(F)c1 [Example 4-6]
[1]
  fold induction at 0.1 µM: ≥ 1.5
[2]
  fold induction at 0.1 µM: ≥ 1.5
[3]
  IC50: < 10 nM
[4]
  IC50: 10 to 100 nM

## CCc1ccc(Nc2c3c(=O)n(C4CC4)c(=O)n(-c4cccc(NC(C)=O)c4)c3c(C)c(=O)n2C)c(F)c1 [Example 4-9]
[1]
  fold induction at 0.1 µM: ≥ 1.5
[2]
  fold induction at 0.1 µM: ≥ 1.5
[3]
  IC50: < 10 nM
[4]
  IC50: 10 to 100 nM

## CCS(=O)(=O)c1cccc(-n2c(=O)n(C3CC3)c(=O)c3c(Nc4ccc(Br)cc4F)n(C)c(=O)c(C)c32)c1 [Example 4-10]
[1]
  fold induction at 0.1 µM: ≥ 1.5
[2]
  fold induction at 0.1 µM: ≥ 1.5
[3]
  IC50: 10 to 100 nM
[4]
  IC50: 100 to 1000 nM

## C=Cc1ccc(Nc2c3c(=O)n(C4CC4)c(=O)n(-c4cccc(NC(C)=O)c4)c3c(C)c(=O)n2C)c(F)c1 [Example 4-11]
[1]
  fold induction at 0.1 µM: ≥ 1.5
[2]
  fold induction at 0.1 µM: ≥ 1.5
[3]
  IC50: < 10 nM
[4]
  IC50: 10 to 100 nM

## CCCCC(=O)NCCC(=O)Nc1cccc(-n2c(=O)n(C3CC3)c(=O)c3c(Nc4ccc(I)cc4F)n(C)c(=O)c(C)c32)c1 [Example 4-12]
[1]
  fold induction at 0.1 µM: ≥ 1.5
[2]
  fold induction at 0.1 µM: ≥ 1.5
[3]
  IC50: < 10 nM
[4]
  IC50: 10 to 100 nM

## CCn1c(=O)c2c(Nc3ccc(I)cc3F)n(C)c(=O)c(C)c2n(-c2cccc(NC(C)=O)c2)c1=O [Example 4-21]
[1]
  fold induction at 0.1 µM: ≥ 1.5
[2]
  fold induction at 0.1 µM: ≥ 1.5
[3]
  IC50: < 10 nM
[4]
  IC50: 10 to 100 nM

## C#Cc1ccc(Nc2c3c(=O)n(CC)c(=O)n(-c4cccc(NC(C)=O)c4)c3c(C)c(=O)n2C)c(F)c1 [Example 4-43]
[1]
  fold induction at 0.1 µM: ≥ 1.5
[2]
  fold induction at 0.1 µM: ≥ 1.5
[3]
  IC50: 10 to 100 nM
[4]
  IC50: 100 to 1000 nM

## CCc1ccc(Nc2c3c(=O)n(CC)c(=O)n(-c4cccc(NC(C)=O)c4)c3c(C)c(=O)n2C)c(F)c1 [Example 4-45]
[1]
  fold induction at 0.1 µM: ≥ 1.5
[2]
  fold induction at 0.1 µM: ≥ 1.5
[3]
  IC50: 10 to 100 nM
[4]
  IC50: 100 to 1000 nM

## C#Cc1ccc(Nc2c3c(=O)n(C)c(=O)n(-c4cccc(NC(C)=O)c4)c3c(C)c(=O)n2C)c(F)c1 [Example 4-48]
[1]
  fold induction at 0.1 µM: ≥ 1.5
[2]
  fold induction at 0.1 µM: ≥ 1.5
[3]
  IC50: < 10 nM
[4]
  IC50: 10 to 100 nM
